Data: ChEMBL document CHEMBL1155508, “Discovery of TRPV1 antagonist ABT-116” (Bioorg Med Chem Lett, 2010)
≈ marks a conversion by molar mass, not a printed value.

What was measured:
[1] = target: T1, Transient receptor potential cation channel subfamily V member 1 (Homo sapiens, UniProt Q8NER1); test: Antagonist activity at human TRPV1; format: functional
Rattus norvegicus [2] = test: Antiinflammatory activity against complete Freund's adjuvant-induced thermal hyperalgesia in po dosed rat; format: functional
[3] = Ratio of drug level in brain to plasma in rat at 10 µmol/kg, po; conditions: read-out: BPR
[4] = target: T1, Transient receptor potential cation channel subfamily V member 1; test: Antagonist activity at human TRPV1 expressed in HEK293 cells assessed as inhibition of capsaicin-induced effect by capsaicin
[5] = target: Transient receptor potential cation channel subfamily V member 1 (Rattus norvegicus, UniProt O35433); test: Antagonist activity at rat TRPV1 assessed as inhibition of capsaicin-induced effect; format: functional
[6] = target: T1, Transient receptor potential cation channel subfamily V member 1; test: Antagonist activity at human TRPV1 expressed in HEK293 cells assessed as inhibition of N-arachidonoyl-dopamine-induced effect; format: functional, cell-based
[7] = Oral bioavailability in rat at 10 µmol/kg; conditions: in vivo
[8] = Aqueous solubility of the compound; format: physicochemical
Rattus norvegicus [9] = test: Antiinflammatory activity in rat post operative pain model assessed as reduction in pain in rat at 100 umol/kg, po single dose; design: scale not given: the % may be the effect or the level left
CYP3A4 = CYP3A4 (Homo sapiens, UniProt P08684); test: Inhibition of CYP3A4 assessed as midazolam oxidation at 10 uM; format: ADME; conditions: probe midazolam
Rattus norvegicus [10] = test: Plasma clearance in rat at 10 µmol/kg, po; conditions: in vivo
[11] = Cmax in rat at 10 µmol/kg, po; conditions: in vivo
Rattus norvegicus [12] = test: Antiinflammatory activity in rat osteoarthritis model assessed as reduction of pain in rat at 10 umol/kg, po single dose; design: scale not given: the % may be the effect or the level left
Rattus norvegicus [13] = test: Volume of distribution at steady state in rat at 10 µmol/kg, po; conditions: in vivo
Rattus norvegicus [14] = test: Antiinflammatory activity in rat osteoarthritis model assessed as reduction of pain in rat at 10 umol/kg, po bid measured after 12 days; format: functional; design: scale not given: the % may be the effect or the level left
Rattus norvegicus [15] = test: Toxicity in rat assessed as increase of body temperature at 100 umol/kg, po after 1 hr; format: organism-based; conditions: in vivo
Rattus norvegicus [16] = test: Antiinflammatory activity in rat osteoarthritis model assessed as inhibition of thermal hyperalgesia in po dosed rat; format: functional
[17] = Solubility in lipid; format: physicochemical
Rattus norvegicus [18] = test: Antiinflammatory activity against carrageenan-induced thermal hyperalgesia in po dosed rat; format: functional
[19] = Half life in rat at 10 µmol/kg, po; conditions: in vivo
[20] = Genotoxicity in Salmonella Typhimurium by Ames test; format: toxicity; conditions: salmonella enterica subsp. enterica serovar typhimurium
[21] = Solubility in PEG-400; format: physicochemical
Cytochrome P450 3A4 = Cytochrome P450 3A4 (Homo sapiens, UniProt P08684); test: Inhibition of CYP3A4; format: ADME; conditions: TDE = time-dependent effect
[22] = Plasma clearance in iv dosed rat; format: ADME, organism-based
[23] = Terminal phase volume of distribution at steady state in iv dosed rat; format: ADME, organism-based; conditions: in vivo, read-out: Vbeta

T1 sequence (Q8NER1 whole entry): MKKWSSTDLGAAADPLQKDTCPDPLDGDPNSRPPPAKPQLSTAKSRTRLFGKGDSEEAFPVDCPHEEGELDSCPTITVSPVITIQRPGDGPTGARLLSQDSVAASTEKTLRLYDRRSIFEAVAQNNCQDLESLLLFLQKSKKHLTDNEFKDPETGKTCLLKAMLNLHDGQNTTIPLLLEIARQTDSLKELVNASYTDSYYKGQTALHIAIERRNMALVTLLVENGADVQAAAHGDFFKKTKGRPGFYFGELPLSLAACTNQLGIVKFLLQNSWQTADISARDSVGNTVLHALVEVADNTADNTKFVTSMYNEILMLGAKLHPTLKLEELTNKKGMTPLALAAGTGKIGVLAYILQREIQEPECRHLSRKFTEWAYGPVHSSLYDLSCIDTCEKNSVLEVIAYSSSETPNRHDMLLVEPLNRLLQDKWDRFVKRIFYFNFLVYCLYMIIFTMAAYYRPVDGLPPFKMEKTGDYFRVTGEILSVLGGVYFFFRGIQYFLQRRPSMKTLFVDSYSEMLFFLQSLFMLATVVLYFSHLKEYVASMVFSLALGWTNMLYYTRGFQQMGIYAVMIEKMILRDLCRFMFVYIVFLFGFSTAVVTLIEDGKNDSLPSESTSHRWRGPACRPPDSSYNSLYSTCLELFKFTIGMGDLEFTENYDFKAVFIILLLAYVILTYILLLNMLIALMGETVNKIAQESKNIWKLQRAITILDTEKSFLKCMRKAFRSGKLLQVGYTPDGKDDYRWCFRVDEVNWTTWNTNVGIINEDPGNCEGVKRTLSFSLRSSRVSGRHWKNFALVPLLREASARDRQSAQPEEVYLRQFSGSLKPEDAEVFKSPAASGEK
Sequence of CYP3A4 (P08684 whole entry): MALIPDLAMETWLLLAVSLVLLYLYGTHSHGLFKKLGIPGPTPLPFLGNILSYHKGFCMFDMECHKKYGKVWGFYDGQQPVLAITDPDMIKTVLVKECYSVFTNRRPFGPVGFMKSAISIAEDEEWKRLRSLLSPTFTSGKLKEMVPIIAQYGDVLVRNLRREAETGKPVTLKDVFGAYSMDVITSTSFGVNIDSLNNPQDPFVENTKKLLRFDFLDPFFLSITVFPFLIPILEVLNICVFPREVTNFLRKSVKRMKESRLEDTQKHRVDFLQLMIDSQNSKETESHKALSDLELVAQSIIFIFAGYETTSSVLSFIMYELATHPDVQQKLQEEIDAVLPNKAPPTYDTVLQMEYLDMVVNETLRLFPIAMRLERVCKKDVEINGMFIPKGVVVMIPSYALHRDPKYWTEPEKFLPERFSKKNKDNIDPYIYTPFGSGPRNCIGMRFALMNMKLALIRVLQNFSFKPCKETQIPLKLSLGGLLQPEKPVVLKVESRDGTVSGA
Sequence of Cytochrome P450 3A4 (P08684 whole entry): as above
Sequence of Transient receptor potential cation channel subfamily V member 1 (Rattus norvegicus, UniProt O35433) (O35433 whole entry): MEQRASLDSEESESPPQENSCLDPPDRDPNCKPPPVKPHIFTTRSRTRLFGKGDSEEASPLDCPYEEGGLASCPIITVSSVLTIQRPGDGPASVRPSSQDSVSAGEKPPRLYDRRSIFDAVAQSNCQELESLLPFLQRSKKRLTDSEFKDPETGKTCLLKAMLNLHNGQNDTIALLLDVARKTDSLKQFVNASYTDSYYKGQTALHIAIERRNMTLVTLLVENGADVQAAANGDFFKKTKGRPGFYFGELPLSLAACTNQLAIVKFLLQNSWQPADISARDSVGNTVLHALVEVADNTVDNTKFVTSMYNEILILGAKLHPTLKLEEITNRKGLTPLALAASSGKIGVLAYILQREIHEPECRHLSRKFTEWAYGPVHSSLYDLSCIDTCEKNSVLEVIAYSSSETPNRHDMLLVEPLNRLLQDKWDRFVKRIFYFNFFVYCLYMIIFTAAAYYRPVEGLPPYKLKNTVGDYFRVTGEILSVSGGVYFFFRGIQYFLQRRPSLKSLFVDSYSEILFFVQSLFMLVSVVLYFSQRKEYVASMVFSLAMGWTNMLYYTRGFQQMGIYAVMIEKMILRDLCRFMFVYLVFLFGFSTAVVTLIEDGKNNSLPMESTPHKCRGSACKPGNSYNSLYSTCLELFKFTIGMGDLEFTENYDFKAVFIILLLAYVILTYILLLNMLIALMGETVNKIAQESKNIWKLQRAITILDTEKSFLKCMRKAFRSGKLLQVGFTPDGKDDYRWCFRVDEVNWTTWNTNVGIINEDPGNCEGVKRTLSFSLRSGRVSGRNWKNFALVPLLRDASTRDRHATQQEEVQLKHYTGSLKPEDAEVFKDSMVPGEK

For `O=C(NCc1ccc(C(F)(F)F)nc1N1CCOCC1)Nc1cccc2[nH]ncc12`, the IC50 [1] was 12 nM and the ED50 (Rattus norvegicus [2]) was 33 µmol/kg.
Molecule `Cc1ccc(CNC(=O)Nc2cccc3[nH]ncc23)c(N2CCOCC2)n1` has an IC50 [1] of 125 nM.
`O=C(NCc1ccc(C(F)(F)F)cc1CCc1ccccc1)Nc1cccc2[nH]ncc12` showed an IC50 [1] of 8 nM and an ED50 (Rattus norvegicus [2]) of 30 µmol/kg.
In the case of `O=C(NCc1ccc(C(F)(F)F)cc1Oc1ccccc1)Nc1cccc2[nH]ncc12`, the IC50 [1] is reported as 9 nM and the ED50 (Rattus norvegicus [2]) is reported as 22 µmol/kg.
`O=C(NCc1ccc(C(F)(F)F)nc1N1CCCCC1)Nc1cccc2[nH]ncc12` gave an IC50 [1] of 3.5 nM and an ED50 (Rattus norvegicus [2]) of 30 µmol/kg.
Molecule `Cc1ccc(CNC(=O)Nc2cccc3[nH]ncc23)c(N2CCCCC2)n1` has an IC50 [1] of 16 nM and an ED50 (Rattus norvegicus [2]) of 53 µmol/kg.
In the case of `CC(C)(C)CCc1nc(C(F)(F)F)ccc1CNC(=O)Nc1cccc2[nH]ncc12`, the IC50 [1] is reported as 5 nM and the ED50 (Rattus norvegicus [2]) is reported as 100 µmol/kg.
For `COCCCc1cc(C(F)(F)F)ccc1CNC(=O)Nc1cccc2[nH]ncc12`, the IC50 [1] was 8 nM.
With `CC(C)(C)COc1nc(C(F)(F)F)ccc1CNC(=O)Nc1cccc2[nH]ncc12` the IC50 [1] was 6 nM, the ED50 (Rattus norvegicus [2]) was over 100 µmol/kg and the Kp [3] was 0.02.
For `CCn1ncc2c(NC(=O)NCc3ccc(C(F)(F)F)cc3CCC(C)(C)C)cccc21`, the IC50 [4] was 53 nM.
Molecule `CC(C)n1ncc2c(NC(=O)NCc3ccc(C(F)(F)F)cc3CCC(C)(C)C)cccc21` has an IC50 [4] of 69 nM.
`Cn1ncc2c(NC(=O)NCc3ccc(C(F)(F)F)cc3CCC(C)(C)C)cccc21` gave an IC50 [5] of 277 nM, an IC50 [6] of 15 nM and a bioavailability [7] of 58%. The solubility [8] was under 0.01 µg/mL, the Activity (Rattus norvegicus [9]) was 45% and the inhibition at 10 µM (CYP3A4) was 10%. It also gave an IC50 [4] of 7 nM, a clearance (Rattus norvegicus [10]) of 13.3 mL/min/kg and a Cmax [11] of 140 ng/mL. For the same molecule, the Activity (Rattus norvegicus [12]) was 20%, the Vdss (Rattus norvegicus [13]) was 3.4 L/kg and the Activity (Rattus norvegicus [14]) was 67%. It also gave a T (Rattus norvegicus [15]) of 0.9 °C, an ED50 (Rattus norvegicus [16]) of 66 µmol/kg and a Kp [3] of 0.32. For the same molecule, the solubility [17] was over 67 µg/mL, the ED50 (Rattus norvegicus [18]) was 25 µmol/kg and the half-life [19] was 3.1 h.
`O=C(NCc1ccc(C(F)(F)F)nc1)Nc1cccc2[nH]ncc12` showed an IC50 [1] of 184 nM and an ED50 (Rattus norvegicus [2]) of 81 µmol/kg.
Molecule `O=C(NCc1ccc(C(F)(F)F)nc1Oc1ccccc1)Nc1cccc2[nH]ncc12` has an IC50 [1] of 9 nM and an ED50 (Rattus norvegicus [2]) of 30 µmol/kg.
With `COCCOc1nc(C(F)(F)F)ccc1CNC(=O)Nc1cccc2[nH]ncc12` the IC50 [1] was 18 nM.
Molecule `COCCCc1nc(C(F)(F)F)ccc1CNC(=O)Nc1cccc2[nH]ncc12` has an IC50 [1] of 12 nM and an ED50 (Rattus norvegicus [2]) of over 30 µmol/kg.
`CC(C)c1cc(C(F)(F)F)ccc1CNC(=O)Nc1cccc2[nH]ncc12` gave an IC50 [1] of 9 nM and an ED50 (Rattus norvegicus [2]) of 14 µmol/kg.
In the case of `CC(C)(F)CCc1cc(C(F)(F)F)ccc1CNC(=O)Nc1cccc2[nH]ncc12`, the IC50 [1] is reported as 6 nM and the ED50 (Rattus norvegicus [2]) is reported as 58 µmol/kg.
For `CC(C)(C)CCc1cc(C(F)(F)F)ccc1CNC(=O)Nc1cccc2[nH]ncc12`, the bioavailability [7] was 35%, the IC50 [1] was 4.3 nM and the Activity [20] was “Non-toxic”. For the same molecule, the solubility [8] was 0.42 µg/mL (≈ 1 µM), the solubility [21] was over 100 µg/mL and the inhibition at 10 µM (CYP3A4) was 86%. The “inhibition (INH)” value (Cytochrome P450 3A4) was “tde”, the ED50 (Rattus norvegicus [2]) was 15 µmol/kg and the ED50 (Rattus norvegicus [16]) was 71 µmol/kg. It also gave a clearance [22] of 20 mL/min/kg, a Kp [3] of 0.45 and a Vd [23] of 5.4 L/kg. It also gave an ED50 (Rattus norvegicus [18]) of 7 µmol/kg and a half-life [19] of 4.3 h.
Work on `O=C(NCc1ccc(-c2ccccc2)nc1N1CCCCC1)Nc1cccc2[nH]ncc12` yielded an IC50 [1] of 14 nM and an ED50 (Rattus norvegicus [2]) of 37 µmol/kg.
With `CC(C)(C)c1ccc2c(c1)CC[C@H]2NC(=O)Nc1cccc2[nH]ncc12` [ABT-102] the Kp [3] was 0.32.
